ChEMBL document CHEMBL1201862, “PubChem BioAssay data set” (2004)
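Values below derive from 48-hour exposures of cells grown in 96-well plates, with endpoints linearly interpolated between the two concentrations bracketing the appropriate inhibition level. GI50 = concentration required for 50% inhibition of growth.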 Active and inactive are the calls of the source. Cut-off read from the data, not from the text of the source: active = GI50 up to about 1.1 µM and inactive = higher.

Tests used:
Assay in all cases: NCI tumour cell line growth inhibition, 48 h
786-0 = test system: 786-0
A498 = test system: A498
A549 = test system: A549
ACHN = test system: ACHN
CAKI-1 = test system: CAKI-1
CCRF-CEM = test system: CCRF-CEM
COLO 205 = test system: COLO 205
DU-145 = test system: DU-145
EKVX = test system: EKVX
HCC 2998 = test system: HCC 2998
HCT-116 = test system: HCT-116
HCT-15 = test system: HCT-15
HL-60 = test system: HL-60
HOP-62 = test system: HOP-62
HOP-92 = test system: HOP-92
HT-29 = test system: HT-29
IGROV-1 = test system: IGROV-1
K562 = test system: K562
KM12 = test system: KM12
LOX IMVI = test system: LOX IMVI
M14 = test system: M14
MCF7 = test system: MCF7
MDA-MB-231 = test system: MDA-MB-231
MDA-MB-435 = test system: MDA-MB-435
MDA-N = test system: MDA-N
MOLT-4 = test system: MOLT-4
Malme-3M = test system: Malme-3M
NCI-H226 = test system: NCI-H226
NCI-H23 = test system: NCI-H23
NCI-H522 = test system: NCI-H522
NCI/ADR-RES = test system: NCI/ADR-RES
OVCAR-3 = test system: OVCAR-3
OVCAR-4 = test system: OVCAR-4
OVCAR-5 = test system: OVCAR-5
OVCAR-8 = test system: OVCAR-8
PC-3 = test system: PC-3
RPMI-8226 = test system: RPMI-8226
RXF 393 = test system: RXF 393
SF-295 = test system: SF-295
SF-539 = test system: SF-539
SK-MEL-28 = test system: SK-MEL-28
SK-MEL-2 = test system: SK-MEL-2
SK-MEL-5 = test system: SK-MEL-5
SK-OV-3 = test system: SK-OV-3
SN12C = test system: SN12C
SNB-19 = test system: SNB-19
SNB-75 = test system: SNB-75
SW-620 = test system: SW-620
T47D = test system: T47D
TK-10 = test system: TK-10
U-251 = test system: U-251
UACC-257 = test system: UACC-257
UACC-62 = test system: UACC-62
UO-31 = test system: UO-31
Hs-578T = test system: Hs-578T
NCI-H460 = test system: NCI-H460
SF-268 = test system: SF-268

C=C(C(=O)OC)[C@H]1CC/C(C)=C/CC/C(C)=C/CC[C@@]2(C)O[C@@H]2C1 was tested, and the GI50 (786-0) was 15.5 µM (inactive), the GI50 (A498) was 22.1 µM (inactive) and the GI50 (A549) was 14.9 µM (inactive). The GI50 (ACHN) was 19.8 µM (inactive), the GI50 (CAKI-1) was 13.2 µM (inactive) and the GI50 (CCRF-CEM) was 13.1 µM (inactive). For the same molecule, the GI50 (COLO 205) was 15 µM (inactive), the GI50 (DU-145) was 21.9 µM (inactive) and the GI50 (EKVX) was 18.7 µM (inactive). The GI50 (HCC 2998) was 16 µM (inactive), the GI50 (HCT-116) was 15.4 µM (inactive) and the GI50 (HCT-15) was 16.3 µM. The GI50 (HL-60) was 13 µM (inactive), the GI50 (HOP-62) was 20.7 µM (inactive) and the GI50 (HOP-92) was 16.4 µM (inactive). For the same molecule, the GI50 (HT-29) was 17.3 µM (inactive), the GI50 (IGROV-1) was 16 µM (inactive) and the GI50 (K562) was 11.9 µM (inactive). For the same molecule, the GI50 (KM12) was 16.5 µM (inactive), the GI50 (LOX IMVI) was 15.5 µM (inactive) and the GI50 (M14) was 21.9 µM (inactive). The GI50 (MCF7) was 17 µM (inactive), the GI50 (MDA-MB-231) was 15.9 µM (inactive) and the GI50 (MDA-MB-435) was 22.9 µM (inactive). The GI50 (MDA-N) was 18.2 µM (inactive), the GI50 (MOLT-4) was 15.8 µM (inactive) and the GI50 (Malme-3M) was 25.1 µM (inactive). For the same molecule, the GI50 (NCI-H226) was 19.9 µM (inactive), the GI50 (NCI-H23) was 19.3 µM (inactive) and the GI50 (NCI-H522) was 18.2 µM (inactive). The GI50 (NCI/ADR-RES) was 16.4 µM (inactive), the GI50 (OVCAR-3) was 17.7 µM (inactive) and the GI50 (OVCAR-4) was 26.8 µM (inactive). The GI50 (OVCAR-5) was 23.4 µM (inactive), the GI50 (OVCAR-8) was 13.8 µM (inactive) and the GI50 (PC-3) was 18 µM (inactive). For the same molecule, the GI50 (RPMI-8226) was 14.4 µM (inactive), the GI50 (RXF 393) was 14.9 µM (inactive) and the GI50 (SF-295) was 11.5 µM (inactive). For the same molecule, the GI50 (SF-539) was 17.9 µM (inactive), the GI50 (SK-MEL-28) was 34.6 µM (inactive) and the GI50 (SK-MEL-2) was 15.3 µM (inactive). For the same molecule, the GI50 (SK-MEL-5) was 10.3 µM (inactive), the GI50 (SK-OV-3) was 43.7 µM (inactive) and the GI50 (SN12C) was 16.9 µM (inactive). For the same molecule, the GI50 (SNB-19) was > 100 µM (inactive), the GI50 (SNB-75) was 65.2 µM (inactive) and the GI50 (SW-620) was 18.5 µM (inactive). The GI50 (T47D) was 16.3 µM (inactive), the GI50 (TK-10) was 21.5 µM (inactive) and the GI50 (U-251) was 20.1 µM (inactive). For the same molecule, the GI50 (UACC-257) was 23.8 µM (inactive), the GI50 (UACC-62) was 11.9 µM (inactive) and the GI50 (UO-31) was 19 µM (inactive).
C=C(CC(=O)Nc1ccc(C(=O)OC)o1)C(=O)OC was tested, and the GI50 (786-0) was 19.7 µM (inactive), the GI50 (A498) was 42.8 µM (inactive) and the GI50 (A549) was 18.2 µM (inactive). The GI50 (ACHN) was 18.7 µM (inactive), the GI50 (CAKI-1) was 24.5 µM (inactive) and the GI50 (CCRF-CEM) was > 10 µM (inactive). For the same molecule, the GI50 (COLO 205) was 19.6 µM (inactive), the GI50 (DU-145) was 31.9 µM (inactive) and the GI50 (EKVX) was 21.8 µM (inactive). For the same molecule, the GI50 (HCT-116) was 29.4 µM (inactive), the GI50 (HCT-15) was 24.7 µM and the GI50 (HOP-62) was 73.3 µM (inactive). For the same molecule, the GI50 (HOP-92) was 29.4 µM (inactive), the GI50 (HT-29) was 26.5 µM (inactive) and the GI50 (Hs-578T) was 53.1 µM (inactive). The GI50 (IGROV-1) was 23 µM (inactive), the GI50 (KM12) was 19.9 µM (inactive) and the GI50 (LOX IMVI) was 30.8 µM (inactive). For the same molecule, the GI50 (M14) was 19.1 µM (inactive), the GI50 (MCF7) was 17.9 µM (inactive) and the GI50 (MDA-MB-231) was 27.7 µM (inactive). For the same molecule, the GI50 (MDA-MB-435) was 17.8 µM (inactive), the GI50 (MDA-N) was > 10 µM (inactive) and the GI50 (MOLT-4) was 18.8 µM (inactive). The GI50 (Malme-3M) was 19.7 µM (inactive), the GI50 (NCI-H226) was 26.5 µM (inactive) and the GI50 (NCI-H23) was 28 µM (inactive). For the same molecule, the GI50 (NCI-H460) was 29.9 µM (inactive), the GI50 (NCI-H522) was 19.9 µM (inactive) and the GI50 (NCI/ADR-RES) was 41.3 µM (inactive). For the same molecule, the GI50 (OVCAR-4) was 30.7 µM (inactive), the GI50 (OVCAR-5) was 17.1 µM (inactive) and the GI50 (OVCAR-8) was 36.9 µM (inactive). The GI50 (PC-3) was 23.6 µM (inactive), the GI50 (RXF 393) was 18.5 µM (inactive) and the GI50 (SF-268) was 36.6 µM (inactive). For the same molecule, the GI50 (SF-295) was 34.5 µM (inactive), the GI50 (SF-539) was 17.3 µM (inactive) and the GI50 (SK-MEL-28) was 23 µM (inactive). For the same molecule, the GI50 (SK-MEL-2) was 20.7 µM (inactive), the GI50 (SK-MEL-5) was 18.5 µM (inactive) and the GI50 (SK-OV-3) was 28.7 µM (inactive). For the same molecule, the GI50 (SN12C) was 24.9 µM (inactive), the GI50 (SNB-19) was 25.3 µM (inactive) and the GI50 (SNB-75) was 32.4 µM (inactive). For the same molecule, the GI50 (SW-620) was 22 µM (inactive), the GI50 (T47D) was 23.2 µM (inactive) and the GI50 (TK-10) was 20.8 µM (inactive). For the same molecule, the GI50 (U-251) was 35 µM (inactive), the GI50 (UACC-257) was 21.3 µM (inactive) and the GI50 (UACC-62) was 25.4 µM (inactive). The GI50 (UO-31) was 20.6 µM (inactive).
